“Also recorded” adds a separate entry of the source.
What was measured:
Rat Müller cells (rMC-1) = assay: TNFalpha and cleaved caspase 3 ELISA in Müller cells cultured in high glucose; format: cell-based
Description: (§1) Human retinal endothelial cells (HREC) were purchased from Cell Systems (Kirkland, Wash.) and grown in either basal (5 mM glucose) or growth (25 mM glucose) media. Both media is supplemented with 10% FBS and antibiotics. The day prior to experiments, cells are serum-starved for 18-24 hours. Rat Müller cells (rMC-1) were grown in DMEM medium with 5 mM glucose or 25 mM glucose. Media was supplemented with 10% FBS and antibiotics. Cells were serum starved prior to all experiments for 18-24 hours.
(§2) Human retinal endothelial cells (HREC) and rat Muller cells (rMC-1) in both glucose conditions were treated with Compound 2 at doses of 10 nM, 50 nM, 100 nM, 1 μM, and 10 μM of Compound 2. Cells of each type were grown in medium containing L-glucose to control for changes in osmolarity. 10 μM isoproterenol was also used for each condition as a positive control. Müller cells were treated for 1 hour and 24 hours, while HREC were treated for 30 and 60 minutes.
(§3) Following treatment, cells were collected into lysis buffer containing protease and phosphatase inhibitors. ELISA analyses for TNFalpha, cleaved caspase 3, and PKA were done according to manufacturers instructions. Data is compared against non-treated cells and cells at the various doses. A Kruskal-Wallis test is done, with a Dunn's test for secondary analyses. […] The dose that decreases TNFalpha and caspase 3 levels also increases PKA activity.

[1] = Body weight, blood glucose, blood pressure and intraocular pressure in streptozotocin diabetic rats on eye drop therapy; format: in vivo, rat
Description: Male Lewis rats purchased from Charles River were used. Diabetic rats received a single injection of 60 mg/kg streptozotocin (Fisher, Pittsburgh, Pa.). […] All rats were weighed weekly and only rats with non-fasting blood glucose levels >250 mg/dl were considered diabetic. The designation of diabetic was made at the beginning of the experiments. Glucose was measured bimonthly. No insulin was administered to the rats at any time. To determine whether topical application of Compound 2 could reach the retina and elicit response, dose and time course studies were performed. For those studies, animals were made diabetic for 2 months using STZ. For 4 days, rats received a variety of doses of either Compound 2 (1 mM to 20 mM) or PBS once or twice each day. After the 4 days of eye drop treatment to both eyes, the diabetic and control animals were euthanized. […] After determining the optimal dose and time course for eye drop treatment for Compound 2, three groups of rats were used for this part of the study (control, diabetic (Diabetic), and diabetic+eye drop (Diab+2). Within 1 week of STZ-injection, 12 rats were put onto eye drop therapy. Rats on the eye drop therapy received a daily application of 4 drops of 1 mM Compound 2 to each eye. To verify that insulin levels were lost in the diabetic animals, insulin ELISA (Rat/Mouse Insulin ELISA kit, Linco, St. Charles, Mo.) was done on blood sampled from all rats at 2 months of age. Rats were sacrificed at 2 or 8 months of age. […] Analyses on the rats were done for acute changes (8 weeks of diabetes, 45 rats) and chronic changes (8 months of diabetes, 45 rats). […] Each month, all rats were tested for visual function: electroretinogram (ERG) and live retinal imaging were performed using Optical Coherence Topography (OCT). […] While the animals were asleep for ERG analyses, blood pressure and pulse were monitored to detect potential negative cardiovascular events.

[2] = tested on: Human retinal endothelial cells (HREC); assay: TNFalpha and cleaved caspase 3 ELISA in retinal endothelial cells cultured in high glucose; format: cell-based; conditions: 50 nM
Description: as §1, §2, §3

[3] = tested on: retinal vasculature of hypoxic mice; assay: Oxygen-induced retinopathy model of proliferative diabetic retinopathy; format: in vivo; conditions: 1 mM eye drops once daily on days 13, 14, 15, sacrificed day 17
Description: A model of oxygen-induced retinopathy was used to determine the effects in vivo of Compound 2 on mice. Mice were placed into a chamber with 100% oxygen at day 7 of life. On day 12, they were removed from the chamber into normal air. The retina interprets this as hypoxia and starts angiogenesis. Mice were treated with 1 mM Compound 2 in eye drops once daily on days 13, 14, 15. Animals were sacrificed on day 17. FIGS. 19A-19 Retinal flat mounts were prepared.

Akt (Ser 473) = assay: Western blot of phosphorylated Akt to total Akt in rat retina; format: in vivo; conditions: diabetic rats, daily 1 mM, retinal lysates
Text: (§4) The other eye from each animal was used for protein analyses for inflammatory markers and insulin receptor signaling. Western blotting was done as described (9). Antibodies used were total insulin receptor beta (1:500, Cellular Signaling, Danvers, Mass.), phosphorylated insulin receptor beta (Tyr 1150/1151, 1:500, Cellular Signaling, Danvers, Mass.), total Akt (1:500, Cellular Signaling, Danvers, Mass.), and phosphorylated Akt (Ser 473, 1:500, Cellular Signaling, Danvers, Mass.). For analyses of the data, mean densitometry values were obtained using the Kodak 2.0 software. The ratio of phosphorylated protein was compared to levels of total protein.

[4] = tested on: insulin receptor beta (Tyr 1150/1151); assay: Western blot of phosphorylated to total insulin receptor beta in rat retina; format: in vivo; conditions: diabetic rats, 1 mM eye drops
Text: as §4

[5] = Müller cells in high glucose, 50 nM
[6] = diabetic rats, daily 1 mM Compound 2 eye drops, in mmHg (unit assumed)
[7] = following Compound 2 treatment, in words

## COc1cc(CCNC[C@H](O)c2ccc(O)c(O)c2)cc(OC)c1OC.Cl (single isomer, unassigned) [Compound 2, 4-[1-hydroxy-2-(1-ethylamino-3-,4-,5-trimethoxyphenyl)ethyl]benzene-1,2-diol hydrochloride]
Rat Müller cells (rMC-1); [5]
  reduction of TNFalpha levels compared to not-treated cells: 19%
  reduction of caspase 3 compared to not-treated cells: 55%
Rat Müller cells (rMC-1); Müller cells in high glucose, 50 nM, vs non-treated
  TNFalpha levels, in words: significantly reduced
Rat Müller cells (rMC-1); Müller cells in high glucose, 50 nM, vs non-treated, hydrochloride
  cleaved caspase 3 levels, in words: significantly decreased caspase 3 levels in Müller cells at the 24-hour time point; also recorded: significantly reduced levels of cleaved caspase 3
Rat Müller cells (rMC-1); Müller cells, 50 nM Compound 2 vs. 10 μM isoproterenol
  dose for blockade of apoptosis and TNFalpha activity compared with isoproterenol: significantly lower dose
[1]; daily administration of 1 mM, in words
  effect on body weight: did not affect
[1]; diabetic rats, daily 1 mM Compound 2 eye drops
  Body wt: 248.7 ± 8.3 g
[1]; [6]
  BP Systolic: 104.8 ± 13.7
  IOP: 8.08 ± 1.17
[1]; [7]
  effect on blood pressure: no observed effect
  effect on intraocular pressure: no observed effect
[2]; REC in 25 mM glucose
  reduction of TNFalpha levels versus not-treated controls: 23%
  reduction of caspase 3 levels versus not-treated controls: 54%
[2]; REC in high glucose, vs non-treated
  TNFalpha levels, in words: significantly reduced
[2]; REC in high glucose, vs non-treated, hydrochloride
  cleaved caspase 3 levels, in words: significantly decreased caspase 3 levels; also recorded: significantly reduced levels of cleaved caspase 3
[3]
  development of retinal vasculature (retinal flat mounts): the retina is much more developed and appears normal
Akt (Ser 473)
  ratio of phosphorylated Akt to total Akt: maintained the ratio of phosphorylated Akt at levels similar to control values
[4]; 2 months of diabetes
  insulin receptor beta tyrosine phosphorylation, 2 months: maintained insulin receptor beta tyrosine phosphorylation at levels similar to control animals
[4]; 8 months of diabetes
  insulin receptor beta tyrosine phosphorylation, 8 months: also maintained

— patent publication US20120329879A1, “BETA-ADRENERGIC RECEPTOR AGONISTS AND USES THEREOF” (THE UNIVERSITY OF TENNESSEE RESEARCH FOUNDATION, priority 2010, published 2012)
